According to the Kinase Knowledgebase extract (Sharma et al. 2016):

Tests used:
CDK2 = CDK2 (UniProt P24941); experiment: Enzyme Assay
EGFR = EGFR (UniProt P00533); settings: concentration not given here
Chain of EGFR (P00533 whole entry, looked up): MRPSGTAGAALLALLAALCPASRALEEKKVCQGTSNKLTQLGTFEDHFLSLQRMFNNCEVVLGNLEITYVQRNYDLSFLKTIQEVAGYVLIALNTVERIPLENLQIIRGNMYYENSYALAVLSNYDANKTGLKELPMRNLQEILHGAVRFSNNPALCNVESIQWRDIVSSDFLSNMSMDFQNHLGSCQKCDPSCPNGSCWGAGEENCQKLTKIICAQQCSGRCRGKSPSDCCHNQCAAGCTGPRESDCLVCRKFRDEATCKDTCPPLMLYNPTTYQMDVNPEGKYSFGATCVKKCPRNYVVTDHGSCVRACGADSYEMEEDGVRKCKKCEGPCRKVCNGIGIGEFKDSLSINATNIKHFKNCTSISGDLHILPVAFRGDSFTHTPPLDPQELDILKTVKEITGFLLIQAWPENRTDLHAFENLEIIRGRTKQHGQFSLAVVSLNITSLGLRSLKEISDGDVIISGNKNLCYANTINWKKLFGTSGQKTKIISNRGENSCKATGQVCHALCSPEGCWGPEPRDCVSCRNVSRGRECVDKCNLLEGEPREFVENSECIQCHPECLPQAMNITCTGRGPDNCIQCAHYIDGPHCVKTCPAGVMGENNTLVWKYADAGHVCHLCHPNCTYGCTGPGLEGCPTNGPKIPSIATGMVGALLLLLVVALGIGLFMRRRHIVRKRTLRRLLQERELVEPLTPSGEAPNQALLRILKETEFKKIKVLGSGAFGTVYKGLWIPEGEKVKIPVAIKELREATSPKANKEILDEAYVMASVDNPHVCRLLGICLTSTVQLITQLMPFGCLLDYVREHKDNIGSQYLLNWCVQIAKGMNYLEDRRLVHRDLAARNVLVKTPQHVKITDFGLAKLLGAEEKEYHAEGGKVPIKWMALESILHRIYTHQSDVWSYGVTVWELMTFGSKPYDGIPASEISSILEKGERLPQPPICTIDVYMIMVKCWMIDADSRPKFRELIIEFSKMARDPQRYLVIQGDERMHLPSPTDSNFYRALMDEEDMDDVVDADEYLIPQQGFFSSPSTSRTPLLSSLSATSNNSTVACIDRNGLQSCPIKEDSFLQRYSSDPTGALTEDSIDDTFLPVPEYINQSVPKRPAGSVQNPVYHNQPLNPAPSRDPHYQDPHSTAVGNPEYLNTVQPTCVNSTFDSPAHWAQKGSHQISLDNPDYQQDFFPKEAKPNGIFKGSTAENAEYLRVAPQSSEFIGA

| IC50 (CDK2) | inhibition (EGFR) | Compound |
| --- | --- | --- |
| 1 to 10 µM | 30 to 50% | Nc1ccc(C(=O)Nc2ccc(Nc3cc(-c4ccccc4OCc4ccccc4)ncn3)cc2)cc1 |
| 1 to 10 µM | > 80% | COc1ccccc1-c1cc(Nc2ccc(NC(=O)C3(N)CCCCC3)cc2)ncn1 |
| 0.001 to 1 µM | > 80% | Cc1ccc(Nc2cc(-c3cccc(N)c3)ncn2)cc1NS(C)(=O)=O |
| 1 to 10 µM | > 80% | COc1ccccc1-c1cc(Nc2ccc(NC(=O)CC3CCCCN3)cc2)ncn1 (stereo unspecified) |
| 1 to 10 µM | > 80% | NCCCOc1ccccc1-c1cc(Nc2ccc(NC(=O)c3ccc(N)cc3)cc2)ncn1 |
| 0.001 to 1 µM | 50 to 80% | COc1ccccc1-c1cc(Nc2ccc(N3CCCC3=O)cc2)ncn1 |
| 1 to 10 µM | 50 to 80% | Cc1ccc(Nc2cc(-c3cccc(N)c3)ncn2)cc1NS(=O)(=O)c1ccccc1 |
| 1 to 10 µM | 50 to 80% | COc1ccccc1-c1cc(Nc2ccc(NC(=O)c3ccc(N4CCN(C)CC4)cc3)cc2)ncn1 |
| 1 to 10 µM | > 80% | CNC(C)(C)C(=O)Nc1ccc(Nc2cc(-c3ccccc3OC)ncn2)cc1 |
| 1 to 10 µM | > 80% | CN[C@H](C(=O)Nc1ccc(Nc2cc(-c3ccccc3OC)ncn2)cc1)c1ccccc1 |
| 1 to 10 µM | 50 to 80% | COc1ccccc1-c1cc(Nc2ccc(NC(=O)c3cn(C)cn3)cc2)ncn1 |
| 0.001 to 1 µM | 50 to 80% | COc1ccccc1-c1cc(Nc2ccc(NC(C)=O)cc2)ncn1 |
| 10 to 250 µM | – | COc1ccccc1-c1cc(NCCc2ccncc2)ncn1 |
| 0.001 to 1 µM | > 80% | CCCS(=O)(=O)Nc1cc(Nc2cc(-c3cccc(N)c3)ncn2)ccc1C |
| 10 to 250 µM | – | Nc1ccc(C(=O)Nc2ccc(Nc3cc(NCC4CCCCC4)ncn3)cc2)cc1 |
| 10 to 250 µM | – | CC(C)(C)C(=O)Nc1ccc(Nc2cc(-c3cccnc3)ncn2)cc1 |
| 0.001 to 1 µM | 50 to 80% | NC(=O)c1ccc(Nc2cc(-c3ccccc3OCc3ccccc3)ncn2)cc1 |

| IC50 (CDK2) | inhibition (EGFR) | Compound |
| --- | --- | --- |
| 1 to 10 µM | – | COc1ccccc1-c1cc(Nc2ccc(NC(=O)C(N)c3ccc4ccccc4c3)cc2)ncn1 (stereo unspecified) |
| 1 to 10 µM | – | Cc1ccc(Nc2cc(-c3cccc(CO)c3)ncn2)cc1NS(C)(=O)=O |
| 10 to 250 µM | – | Cc1ccc(Nc2cc(-c3cccc(C(F)(F)F)c3)ncn2)cc1NS(C)(=O)=O |
| 1 to 10 µM | 30 to 50% | COc1ccccc1-c1cc(Nc2ccc(NC(=O)Cc3ccccc3)cc2)ncn1 |
| 1 to 10 µM | – | COc1ccccc1-c1cc(Nc2ccc(NC(=O)c3ccc4ccccc4c3O)cc2)ncn1 |
| 1 to 10 µM | – | COc1ccccc1-c1cc(Nc2ccc(C(=O)NC(C)(C)C)cc2)ncn1 |
| 0.001 to 1 µM | – | Cc1ccc(S(=O)(=O)Nc2ccc(Nc3cc(-c4ccc(O)cc4)ncn3)cc2)cc1 |
| 1 to 10 µM | – | COc1ccccc1-c1cc(Nc2cccc(NC(=O)C(C)(C)C)c2)ncn1 |
| 0.001 to 1 µM | > 80% | COc1ccccc1-c1cc(Nc2ccc(C(=O)NC3CCCNC3)cc2)ncn1 (stereo unspecified) |
| 10 to 250 µM | – | COc1ccccc1-c1cc(Nc2ccc(NC(=O)c3ccc4[nH]cnc4c3)cc2)ncn1 |
| 1 to 10 µM | – | Cc1ccc(S(=O)(=O)Nc2ccc(Nc3cc(Cl)ncn3)cc2)cc1 |
| 1 to 10 µM | – | COc1cccc(-c2cc(Nc3ccc(NC(=O)c4ccc(N)cc4)cc3)ncn2)c1OC |
| 0.001 to 1 µM | – | COc1ccccc1-c1cc(Nc2cccc(S(C)(=O)=O)c2)ncn1 |
| 10 to 250 µM | – | Nc1ccc(C(=O)Nc2ccc(Nc3cc(NCCO)ncn3)cc2)cc1 |
| 10 to 250 µM | – | Nc1ccc(C(=O)Nc2ccc(Nc3cc(Cl)ncn3)cc2)cc1 |
| 10 to 250 µM | – | COc1ccc(C(C)C)cc1-c1cc(Nc2ccc(NC(=O)c3ccc(N)cc3)cc2)ncn1 |
| 1 to 10 µM | – | COc1ccccc1-c1cc(Nc2ccc(NC(=O)NC(C)(C)C)cc2)ncn1 |

Second part, the compound before the results:

| Compound | IC50 (CDK2) | inhibition (EGFR) |
| --- | --- | --- |
| COc1ccccc1-c1cc(Nc2ccc(NC(=O)NC3CCCCC3)cc2)ncn1 | 1 to 10 µM | 30 to 50% |
| CCN(CC)CCC(=O)Nc1ccc(Nc2cc(-c3ccccc3OC)ncn2)cc1 | 1 to 10 µM | > 80% |
| COc1ccccc1-c1cc(Nc2ccc(NC(=O)C3(N)CCCC3)cc2)ncn1 | 1 to 10 µM | > 80% |
| COc1ccccc1-c1cc(Nc2ccc(C(=O)N[C@@H]3CCCC[C@H]3N)cc2)ncn1.COc1ccccc1-c1cc(Nc2ccc(C(=O)N[C@H]3CCCC[C@@H]3N)cc2)ncn1 | 1 to 10 µM | 50 to 80% |
| COc1ccccc1-c1cc(Nc2ccc(NC(=O)CCN)cc2)ncn1 | 1 to 10 µM | > 80% |
| COc1ccccc1-c1cc(Nc2ccc(NC(=O)[C@@H]3Cc4ccccc4CN3)cc2)ncn1 | 1 to 10 µM | > 80% |
| CC(C)Oc1ccccc1-c1cc(Nc2ccc(NC(=O)c3ccc(N)cc3)cc2)ncn1 | 0.001 to 1 µM | 50 to 80% |
| COc1ccccc1-c1cc(Nc2ccc(N)cc2)ncn1 | 0.001 to 1 µM | > 80% |
| COc1ccccc1-c1cc(Nc2ccc(NC(=O)[C@@H](N)c3ccccc3)cc2)ncn1 | 1 to 10 µM | 50 to 80% |
| COc1ccccc1-c1cc(Nc2ccc(NC(=O)c3ccccc3N)cc2)ncn1 | 1 to 10 µM | – |
| COc1ccccc1-c1cc(Nc2ccc(C(=O)N[C@@H]3CCCC[C@@H]3N)cc2)ncn1.COc1ccccc1-c1cc(Nc2ccc(C(=O)N[C@H]3CCCC[C@H]3N)cc2)ncn1 | 1 to 10 µM | – |
| N[C@@H]1CCCC[C@H]1NC(=O)c1ccc(Nc2cc(-c3ccccc3OCc3ccccc3)ncn2)cc1.N[C@H]1CCCC[C@@H]1NC(=O)c1ccc(Nc2cc(-c3ccccc3OCc3ccccc3)ncn2)cc1 | 0.001 to 1 µM | – |
| COc1ccccc1-c1cc(Nc2ccc(NC(=O)[C@H]3CCCCN3)cc2)ncn1 | 1 to 10 µM | > 80% |
| Cc1ccc(S(=O)(=O)Nc2ccc(Nc3cc(-c4cccc(/C=C/C(=O)O)c4)ncn3)cc2)cc1 | 10 to 250 µM | – |
| COc1ccccc1-c1cc(Nc2ccc(NC(=O)[C@@H]3CCCCN3)cc2)ncn1 | 1 to 10 µM | > 80% |
| CC(C)(C)C(=O)Nc1ccc(Nc2cc(-c3ccccc3OCc3ccccc3)ncn2)cc1 | 1 to 10 µM | – |
| Nc1ccc(C(=O)Nc2ccc(Nc3cc(-c4cccc(N)c4)ncn3)cc2)cc1 | 1 to 10 µM | – |
| COc1ccccc1-c1cc(Nc2ccc(C(=O)Nc3ccccc3)cc2)ncn1 | 10 to 250 µM | – |
| COc1ccccc1-c1cc(Nc2ccc(NC(=O)CN(C)C)cc2)ncn1 | 1 to 10 µM | – |

| Compound | IC50 (CDK2) | inhibition (EGFR) |
| --- | --- | --- |
| COc1ccccc1-c1cc(Nc2ccc(NC(=O)C3CCCCC3)cc2)ncn1 | 10 to 250 µM | – |
| COc1ccccc1-c1cc(Nc2ccc(NC(=O)[C@H]3CCCN3)cc2)ncn1 | 1 to 10 µM | > 80% |
| c1ccc(COc2ccccc2-c2cc(NCCc3ccncc3)ncn2)cc1 | 1 to 10 µM | – |
| CC(C)(C)C(=O)Nc1ccc(Nc2cc(NCCCO)ncn2)cc1 | 10 to 250 µM | – |
| COc1ccccc1-c1cc(Nc2ccc(NC(=O)C3CCCN(C)C3)cc2)ncn1 (stereo unspecified) | 1 to 10 µM | > 80% |
| CCCN(c1ccc(Nc2cc(-c3ccccc3OC)ncn2)cc1)S(=O)(=O)c1ccc(C)cc1 | 10 to 250 µM | – |
| CC(C)(C)C(=O)Nc1ccc(Nc2cc(-c3ccccc3F)ncn2)cc1 | 10 to 250 µM | – |
| CCCCNS(=O)(=O)c1cccc(Nc2cc(-c3ccccc3OC)ncn2)c1 | 1 to 10 µM | – |
| Cc1ccc(Nc2cc(-c3cccc(O)c3)ncn2)cc1NS(C)(=O)=O | 0.001 to 1 µM | – |
| Cc1ccc(Nc2cc(-c3cccc(N)c3)ncn2)cc1NS(=O)(=O)c1cn(C)cn1 | 0.001 to 1 µM | – |
| COc1ccccc1-c1cc(Nc2ccc(-c3nc4ccccc4[nH]3)cc2)ncn1 | 0.001 to 1 µM | – |
| Nc1cccc(-c2cc(NCCc3ccncc3)ncn2)c1 | 1 to 10 µM | – |
| COc1ccccc1-c1cc(Nc2ccc(NS(C)(=O)=O)cc2)ncn1 | 0.001 to 1 µM | 50 to 80% |
| Nc1ccc(C(=O)Nc2ccc(Nc3cc(-c4ccccc4O)ncn3)cc2)cc1 | 10 to 250 µM | – |
| COc1ccccc1-c1cc(Nc2ccc(C(=O)Nc3ccc(N4CCOCC4)cc3)cc2)ncn1 | 1 to 10 µM | – |
| COc1ccc(Cl)cc1-c1cc(Nc2ccc(NC(=O)c3ccc(N)cc3)cc2)ncn1 | 10 to 250 µM | – |
| COc1ccc(-c2cc(Nc3ccc(NC(=O)[C@@H]4CCCCN4)cc3)ncn2)c(OC)c1 | 1 to 10 µM | – |
| Cc1ccc(S(=O)(=O)Nc2ccc(Nc3cc(-c4ccc(CCC(=O)O)cc4)ncn3)cc2)cc1 | 10 to 250 µM | – |
